Results on 16 molecules are retold here after publication PMC6254286, “Quantitative Structure − Antiprotozoal Activity Relationships of Sesquiterpene Lactones ^†” (Molecules, 2009).

Read-outs that look alike come from different tables or passages of the source.

The nature of one data set: in vitro. The settings on record: rat; for IC50: IC50 Cytotoxicity (L6), L6 rat skeletal myoblasts, 72 h, mean of two independent measurements. On the procedure: (§1) Trypanosoma brucei rhodesiense and cytotoxicity against L6 cells. Minimum Essential Medium with Earle’s salts (50 µL) supplemented with 0.2 mM 2-mercapto-ethanol, 1 mM Na-pyruvate and 15% heat-inactivated horse serum was added to each well of a 96-well microtiter plate. […] Then 10^4 bloodstream forms of Trypanosoma brucei rhodesiense STIB 900 in 50 µL of medium were added to each well and the plate incubated at 37°C under a 5% CO2 atmosphere for 72 hours. […] The plate was then read in a Spectramax Gemini XS microplate fluorometer (Molecular Devices Corporation, Sunnyvale, CA, USA) using an excitation wavelength of 536 nm and emission wavelength of 588 nm. Fluorescence development was measured and expressed as percentage of the control. Data were transferred into the graphic programme Softmax Pro (Molecular Devices) which calculated IC50 values. Cytotoxicity was assessed using a similar protocol and rat skeletal myoblasts (L6 cells). […] All following steps were according to the T. b. rhodesiense protocol.

In data set [1] the test system is T. cruzi Tulahuen strain C2C4. The data set can be described thus: In vitro activity against T. cruzi in L-6 host cells (beta-galactosidase/CPRG). The data set is classed as cell-based, Trypanosoma cruzi. The following applies: Trypanosoma cruzi, read-out: IC50 T. cruzi (Tcr). On the procedure: Trypanosoma cruzi. Rat skeletal myoblasts (L-6 cells) were seeded in 96-well microtiter plates at 2,000 cells/well in 100 µL RPMI 1640 medium with 10% FBS (fetal bovine serum) and 2 mM L-glutamine. After 24 hours the medium was removed and replaced by 100 µL per well containing 5,000 trypomastigote forms of T. cruzi Tulahuen strain C2C4 containing the β-galactosidase (Lac Z) gene. Fortyeight hours later the medium was removed from the wells and replaced by […] fresh medium with or without a serial drug dilution. Seven 3-fold dilutions were used covering a range from […]. Each drug was tested in duplicate. After 96 hours of incubation the plates were inspected under an inverted microscope to assure growth of the controls and sterility. Then the substrate CPRG/ Nonidet (50 µL) was added to all wells. A colour reaction developed within 2-6 hours and could be read photometrically at 540 nm.

For data set [2], the system named is Trypanosoma brucei rhodesiense STIB 900. The data set can be described thus: In vitro activity against T. brucei rhodesiense bloodstream forms (Alamar blue). The format is cell-based. The following applies: for IC50: mean of two independent measurements. On the procedure: as §1
Background: Alamar Blue is a resazurin reagent that responds to reducing activity.

For data set [3], the system named is K1 strain of P. falciparum. The data set can be described thus: Antiplasmodial [3H]-hypoxanthine incorporation assay. The data set is classed as cell-based, Plasmodium falciparum. The settings on record: Plasmodium falciparum. On the procedure: Plasmodium falciparum. Antiplasmodial activity was determined using the K1 strain of P. falciparum (resistant to chloroquine and pyrimethamine). A modification of the [3H]-hypoxanthine incorporation assay was used. Briefly, infected human red blood cells (final parasitaemia and haematocrit were 0.3% and 1.25%, respectively) in RPMI 1640 medium with 5% Albumax were exposed to serial drug dilutions in microtiter plates. After 48 hours of incubation at 37°C in a reduced oxygen atmosphere, 0.5 mCi 3H-hypoxanthine was added to each well. Cultures were incubated for a further 24 h before they were harvested onto glass-fiber filters and washed with distilled water. The radioactivity was counted using a BetaplateTM liquid scintillation counter (Wallac, Zurich, Switzerland). […] From the sigmoidal inhibition curves IC50 values were calculated. Assays were run in duplicate and repeated once.

The test system of data set [4] is Leishmania donovani amastigotes (strain MHOM/ET/67/L82). Briefly: L. donovani axenic amastigote assay (resazurin). The data set is classed as cell-based. The following applies: Leishmania donovani. On the procedure:
Leishmania donovani (axenic amastigote assay). […] Serial drug dilutions in duplicates were prepared covering a range from 30 to 0.041 µg/mL. […] The compounds used as positive controls in the various bioassays (see Table 1) were of commercial origin, with the exception of melarsoprol, which was a gift from WHO. Their purity (generally > 95%) was specified by the manufacturers.

Where [5] appears, read: TULAHUEN, L6, 96 h, Tulahuen C2C4 in L-6 cells, 96 h, mean of two independent measurements.
Setting [6] is: Trypanosoma brucei, 72 h, bloodstream forms STIB 900, 72 h, read-out: IC50 T. brucei rhodes. (Tbr).
Where [7] appears, read: K1, K1 strain (resistant to chloroquine and pyrimethamine), mean of two independent measurements, read-out: IC50 P. falciparum (Pfc).
The mark [8] stands for this setting: 72 h, pH 5.4, axenic amastigotes, pH 5.4, 72 h, mean of two independent measurements, read-out: IC50 L. donovani (Ldon).
[9] abbreviates: L6, Tulahuen C2C4 in L-6 cells, 96 h, mean of two independent measurements.
The mark [10] stands for this setting: K1, read-out: IC50 P. falciparum (Pfc).
[11] abbreviates: axenic amastigotes, pH 5.4, 72 h, mean of two independent measurements, read-out: IC50 L. donovani (Ldon).
Setting [12] is: L6 cells (rat skeletal myoblasts).
[13] abbreviates: Trypanosoma brucei, 72 h, read-out: IC50 T. brucei rhodes. (Tbr), bloodstream forms STIB 900, 72 h.

Turning to `C=C1C(=O)OC2CC(C)C3C(OC(C)=O)CC(O)C3(C)C(OC(C)=O)C12` (stereo not shown) [Compound 15], the IC50 (commonly the concentration at which inhibition is half-maximal) in the data set “in vitro” was determined as 7.28 µM; in data set [1] (setting [5]), 16.3 µM; in data set [2] (setting [6]), 3.96 µM; in data set [3] (setting [7]), 5.98 µM; in data set [4] (setting [8]) it was 8.68 µM.

For the molecule `CC1CC2OC(=O)C(C)C2C(O)C2(C)C(=O)C=CC12` (stereo not shown) [Compound 5], the IC50 in the data set “in vitro” is 8.9 µM; in data set [1] (setting [9]) it was 21.5 µM; in data set [2] (setting [6]) it was 0.686 µM; in data set [3] (setting [10]), 3.05 µM; in data set [4] (setting [11]), 3.85 µM.

`C=C(C(=O)OC1CC(C)=CCCC(CO)=CC2OC(=O)C(=C)C21)C(O)CO` (stereo not shown) [Compound 33] yielded a concentration for half-maximal inhibition (IC50) at 72 h in “in vitro” (setting [12]) of 10.2 µM. For the same molecule, the IC50 in data set [1] (setting [5]) was determined as 16.8 µM; in data set [2] (setting [6]), 1.3 µM; in data set [3] (setting [7]) it was 6.32 µM; in data set [4] (setting [8]) it was 15.2 µM.

As for `CC(C)CC(=O)OC1C2C(CC(C)C3C=CC(=O)C31C)OC(=O)C2C` (stereo not shown) [Compound 7], the IC50 at 72 h in “in vitro” (setting [12]) turned out to be 4.58 µM. In addition, the IC50 in data set [1] (setting [5]) came to 3.53 µM; in data set [2] (setting [6]), 0.911 µM; in data set [3] (setting [7]) it was 1.6 µM; in data set [4] (setting [8]) it was 1.48 µM.

On to `C=C1C(=O)OC2CC(C)C3C=CC(=O)C3(C)C(O)C12` (stereo not shown) [Compound 8], for which, in the data set “in vitro”, the IC50 at 72 h is 2.44 µM. Besides, the IC50 was 1.87 µM in data set [1] (TULAHUEN, L6, 96 h); 0.319 µM in data set [2] (setting [13]); more than 4 µM in data set [4] (72 h, pH 5.4, read-out: IC50 L. donovani (Ldon)).

For the molecule `Nc1nc(N)nc(Nc2ccc([As]3SCC(CO)S3)cc2)n1` (stereo not shown) [melarsoprol, reference compound], the half-maximal inhibitory concentration (IC50) in data set [2] (setting [13]) amounted to 0.008 µM.

With `C=C1C(=O)OC2CC(C)C3C(O)CC(OC(=O)C(C)=CC)C3(C)C(O)C12` (stereo not shown) [Compound 12], the 50% inhibitory concentration (IC50) in “in vitro” was 16.7 µM; in data set [1] (setting [5]), 49.2 µM; in data set [2] (setting [6]) it was 11 µM; in data set [3] (setting [7]), 10.6 µM; in data set [4] (setting [8]), 18 µM.

Consider `C=C1C(=O)OC2CC(C)C3C=CC(=O)C3(C)C(OC(C)=O)C12` (stereo not shown) [Compound 2], for which the half-maximal inhibitory concentration (IC50) in “in vitro” was 0.809 µM; in data set [1] (setting [9]), 0.538 µM; in data set [2] (setting [6]) it was less than 0.1 µM; in data set [2] (bloodstream forms STIB 900, 72 h, read-out: IC50 T. brucei rhodes. (Tbr)), 0.063 µM; in data set [3] (setting [10]), 0.329 µM; in data set [4] (setting [11]) it was 0.446 µM. The “selectivity index (SI) with respect to Tbr” value in data set [2] (ratio of cytotoxic IC50 (L6) over IC50 against Tbr) was 13.

Consider `C=C1C(=O)OC2C=C(C)CCC3OC3(CO)CC(OC(=O)C3(C)OC3C)C12` (stereo not shown) [Compound 36], for which the IC50 stood at 13.6 µM in “in vitro”; 25.6 µM in data set [1] (setting [5]); 14.3 µM in data set [2] (setting [6]); 9.44 µM in data set [3] (setting [7]); 2.73 µM in data set [4] (setting [8]).

On to `C=C1C(=O)OC2CC(C)C3C(OC(C)=O)CC(O)C3(C)C(O)C12` (stereo not shown) [Compound 9], for which the IC50 in the data set “in vitro” stood at 12.3 µM; in data set [1] (setting [5]) it was 45.8 µM; in data set [2] (setting [6]) it was 9.28 µM.

Regarding `C=C1C(=O)O[C@@H]2C[C@@H](C)[C@@H]3C=CC(=O)[C@@]3(C)[C@@H](O)[C@H]12` [Compound 1, helenalin], the 50% inhibitory concentration (IC50) at 72 h in “in vitro” was 0.992 µM. Moreover, the IC50 is 0.695 µM in data set [1] (TULAHUEN, L6, 96 h); less than 0.1 µM in data set [2] (setting [13]); 0.052 µM in data set [2] (read-out: IC50 T. brucei rhodes. (Tbr), bloodstream forms STIB 900, 72 h); 0.05 to 0.1 µM in data set [2] (read-out: IC50 T. brucei rhodes. (Tbr), bloodstream forms STIB 900, 72 h, listed as helenalin).

For the molecule `CCN(CC)CCCC(C)Nc1ccnc2cc(Cl)ccc12` (stereo not shown) [chloroquine, reference compound], the IC50 in data set [3] (setting [10]) is 0.248 µM.

In “in vitro”, `COc1cc([C@@H]2c3cc4c(cc3[C@H](O)[C@H]3COC(=O)[C@H]23)OCO4)cc(OC)c1OC` [podophyllotoxin, reference compound] had an IC50 at 72 h of 0.012 µM.

Regarding `O=C(Cn1ccnc1[N+](=O)[O-])NCc1ccccc1` [benznidazole, reference compound], in data set [1] (setting [5]), the IC50 was 2 µM.

Turning to `CC(=O)OC1C2C(CC(C)C3C=CC(=O)C31C)OC(=O)C2C` (stereo not shown) [Compound 6], the IC50 at 72 h in the data set “in vitro” (setting [12]) came out at 3.06 µM. Moreover, the IC50 in data set [1] (setting [5]) was 6.93 µM; in data set [2] (setting [6]) it was 1.42 µM; in data set [4] (setting [8]) it was more than 4 µM.

With `CCCCCCCCCCCCCCCCOP(=O)([O-])OCC[N+](C)(C)C` [miltefosine, reference compound], the IC50 in data set [4] (setting [8]) was found to be 0.27 µM.
